# From ChEMBL document CHEMBL5131504, “Anthraquinone derivatives as ADP-competitive inhibitors of liver pyruvate kinase” (Eur J Med Chem, 2022)
# pIC50: −log10 of the molar value.
# Experiments:
# Pyruvate kinase PKLR [1] = target: T1, Pyruvate kinase PKLR (Homo sapiens, UniProt P30613); experiment: Inhibition of PKL (unknown origin) at 10 uM for 30 mins by Kinase-Glo Max reagent based luminescence assay
# Target sequence in this assay (P30613 whole entry, looked up): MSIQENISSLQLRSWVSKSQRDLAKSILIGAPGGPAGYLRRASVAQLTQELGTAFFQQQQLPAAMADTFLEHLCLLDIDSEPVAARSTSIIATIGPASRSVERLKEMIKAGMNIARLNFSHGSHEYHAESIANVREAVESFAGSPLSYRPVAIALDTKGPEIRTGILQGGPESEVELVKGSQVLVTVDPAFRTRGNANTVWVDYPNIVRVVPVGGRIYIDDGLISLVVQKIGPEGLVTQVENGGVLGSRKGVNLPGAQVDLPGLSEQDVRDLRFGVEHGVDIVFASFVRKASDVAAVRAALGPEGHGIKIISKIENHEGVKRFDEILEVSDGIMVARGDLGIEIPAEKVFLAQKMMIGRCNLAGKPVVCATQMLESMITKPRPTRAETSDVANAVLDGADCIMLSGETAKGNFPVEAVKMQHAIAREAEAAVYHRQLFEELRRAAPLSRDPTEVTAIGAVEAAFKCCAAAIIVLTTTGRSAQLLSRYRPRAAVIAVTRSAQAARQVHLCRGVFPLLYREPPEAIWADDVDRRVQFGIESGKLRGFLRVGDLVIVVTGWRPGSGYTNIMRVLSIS
# Pyruvate kinase PKLR [2] = target: T1, Pyruvate kinase PKLR; experiment: Inhibition of PKL (unknown origin) for 30 mins by Kinase-Glo Max reagent based luminescence assay
# Target sequence in this assay (P30613 whole entry): as the sequence (P30613 whole entry, looked up) above
# Pyruvate kinase PKLR [3] = target: T1, Pyruvate kinase PKLR; experiment: Inhibition of PKL in human PKM2 knockout HepG2 cells at 10 uM incubated for 5 mins by Microplate reader based analysis relative to control; type: cell-based
# Target sequence in this assay (P30613 whole entry, looked up): as above
Compound,inhibition (Pyruvate kinase PKLR [1]),pIC50 (Pyruvate kinase PKLR [2]),inhibition (Pyruvate kinase PKLR [3])
O=C(O)Cc1ccc(CNS(=O)(=O)c2cc3c(c(O)c2O)C(=O)c2ccccc2C3=O)cc1C(=O)O,99%,6.52,
O=C1c2ccccc2C(=O)c2c1cc(-c1ccc(O)cc1)c(O)c2O,39%,,
NS(=O)(=O)c1cccc(-c2cc3c(c(O)c2O)C(=O)c2ccccc2C3=O)c1,66%,,
O=C1c2ccccc2C(=O)c2c1cc(-c1ccc(O)c(O)c1)c(O)c2O,16%,,
O=C(O)CNc1cc2c(cc1O)C(=O)c1ccccc1C2=O,82%,,82.7%
O=C(O)CC(O)(CC(=O)N1CCN(C(=O)c2cc3c(c(O)c2O)C(=O)c2ccccc2C3=O)CC1)C(=O)O (stereo not given),-1%,,
O=C1c2ccccc2C(=O)c2cc(S(=O)(=O)N3CCN(C(=O)CC(O)(C(=O)O)C(=O)O)CC3)c(O)cc21,63%,,22.6%
CSCCC(NS(=O)(=O)c1cc2c(c(O)c1O)C(=O)c1ccccc1C2=O)C(=O)O (stereo not given),78%,5.85,
O=C1c2ccccc2C(=O)c2cc(S(=O)(=O)N3CCCC(C(=O)O)C3)c(O)cc21 (stereo not given),58%,,40.6%
O=C(O)CC(O)(CC(=O)N1CCN(S(=O)(=O)c2cc(O)c3c(c2)C(=O)c2ccccc2C3=O)CC1)C(=O)O (stereo not given),3%,,
O=C(O)CNC(=O)CNC(=O)CNS(=O)(=O)c1cc2c(c(O)c1O)C(=O)c1ccccc1C2=O,92%,6.15,
O=C(O)Cc1ccc(CNC(=O)Nc2cc3c(c(O)c2O)C(=O)c2ccccc2C3=O)cc1C(=O)O,61%,5.77,34%
COc1c(S(=O)(=O)O)cc2c(c1OC)C(=O)c1ccccc1C2=O,19%,,
O=C1c2ccccc2C(=O)c2c1cc(S(=O)(=O)N1CCCC(C(=O)N[C@@H](Cc3c[nH]cn3)C(=O)O)C1)c(O)c2O (stereo not given in full),27%,,
O=C(O)CNC(=O)CNS(=O)(=O)c1cc2c(c(O)c1O)C(=O)c1ccccc1C2=O,102%,5.39,
O=C(O)CC(Nc1cc2c(c(O)c1O)C(=O)c1ccccc1C2=O)C(=O)O (stereo not given),90%,5.60,83.5%
O=C(O)CC(Nc1cc2c(cc1O)C(=O)c1ccccc1C2=O)C(=O)O (stereo not given),57%,,59.7%
O=C(O)CNS(=O)(=O)c1cc2c(cc1O)C(=O)c1ccccc1C2=O,86%,,78.7%
O=C(O)Cc1ccc(CNc2cc3c(cc2O)C(=O)c2ccccc2C3=O)cc1C(=O)O,94%,,50.2%
O=C1c2ccccc2C(=O)c2c(O)cc(S(=O)(=O)O)cc21,65%,5.14,
O=C(O)Cc1ccc(CNc2cc3c(cc2O)C(=O)c2ccccc2C3=O)cc1,76%,,41.1%
O=C(O)Cc1ccc(CNc2cc3c(c(O)c2O)C(=O)c2ccccc2C3=O)cc1,96%,5.42,82.5%
CS(=O)(=O)c1cccc(-c2cc3c(c(O)c2O)C(=O)c2ccccc2C3=O)c1,31%,,
O=C1c2ccccc2C(=O)c2c1ccc(O)c2O,51%,,
O=C(O)Cc1ccc(CNc2cc3c(c(O)c2O)C(=O)c2ccccc2C3=O)cc1C(=O)O,79%,5.89,79.3%
O=C1c2ccccc2C(=O)c2cc(S(=O)(=O)O)ccc21,45%,,
O=C1c2ccccc2C(=O)c2cc(S(=O)(=O)O)c(O)cc21,95%,5.47,
O=C(O)Cc1ccc(CNC(=O)N2CCN(S(=O)(=O)c3cc4c(c(O)c3O)C(=O)c3ccccc3C4=O)CC2)cc1C(=O)O,99%,6.54,

# Further lines, results first:
inhibition (Pyruvate kinase PKLR [1]),pIC50 (Pyruvate kinase PKLR [2]),inhibition (Pyruvate kinase PKLR [3]),Compound
22%,,,O=C1c2ccccc2C(=O)c2c1cc(C(=O)N1CCNCC1)c(O)c2O
98%,6.82,,O=C1c2ccccc2C(=O)c2c1cc(S(=O)(=O)N1CCNCC1)c(O)c2O
94%,5.89,,O=C(O)CC[C@H](NC(=O)C1CCCN(S(=O)(=O)c2cc3c(c(O)c2O)C(=O)c2ccccc2C3=O)C1)C(=O)O (stereo not given in full)
94%,5.85,,O=C(O)c1cc2c(c(O)c1O)C(=O)c1ccccc1C2=O
101%,5.92,,COC[C@H](NS(=O)(=O)c1cc2c(c(O)c1O)C(=O)c1ccccc1C2=O)C(=O)O
35%,,,O=C(O)C[C@H](NC(=O)C1CCN(S(=O)(=O)c2cc3c(c(O)c2O)C(=O)c2ccccc2C3=O)CC1)C(=O)O
45%,,,O=C(O)CC[C@H](NC(=O)C1CCN(S(=O)(=O)c2cc3c(c(O)c2O)C(=O)c2ccccc2C3=O)CC1)C(=O)O
101%,5.12,,O=C(O)CCCNS(=O)(=O)c1cc2c(c(O)c1O)C(=O)c1ccccc1C2=O
97%,4.72,,O=C(O)CCCCNS(=O)(=O)c1cc2c(c(O)c1O)C(=O)c1ccccc1C2=O
97%,6.05,,O=C1c2ccccc2C(=O)c2c1cc(S(=O)(=O)N[C@@H](CO)C(=O)O)c(O)c2O
72%,5.72,,O=C(O)C[C@H](NC(=O)C1CCCN(S(=O)(=O)c2cc3c(c(O)c2O)C(=O)c2ccccc2C3=O)C1)C(=O)O (stereo not given in full)
77%,,,Nc1c(S(=O)(=O)O)cc2c(c1O)C(=O)c1ccccc1C2=O
100%,6.70,,O=C(O)CC(O)(CC(=O)N1CCN(S(=O)(=O)c2cc3c(c(O)c2O)C(=O)c2ccccc2C3=O)CC1)C(=O)O (stereo not given)
100%,6.70,54%,O=C1c2ccccc2C(=O)c2c1cc(S(=O)(=O)O)c(O)c2O [Alizarin Red S]
87%,5.32,,O=C1c2ccccc2C(=O)c2c1cc(S(=O)(=O)N1CCC(C(=O)O)CC1)c(O)c2O
99%,6.26,,O=C(O)CC[C@H](NC(=O)N1CCN(S(=O)(=O)c2cc3c(c(O)c2O)C(=O)c2ccccc2C3=O)CC1)C(=O)O
102%,5.24,,O=C(O)CCNS(=O)(=O)c1cc2c(c(O)c1O)C(=O)c1ccccc1C2=O
100%,6.70,,O=C(O)CNS(=O)(=O)c1cc2c(c(O)c1O)C(=O)c1ccccc1C2=O
92%,6.80,,O=C1c2ccccc2C(=O)c2c1cc(S(=O)(=O)N1CCCC(C(=O)O)C1)c(O)c2O (stereo not given)
